The values below come from patent US20210269434A1, “TRICYCLIC COMPOUNDS AS INHIBITORS OF KRAS” (Incyte Corporation, priority 2020, published 2021).

The test system of assay [1] is MIA PaCa-2 (KRAS G12C) cells. Description: Cellular pERK HTRF assay (KRAS_G12C pERK). The assay is classed as cell-based, human. The conditions noted are these: Homo sapiens, MIA PaCa-2, 4 hours incubation, read-out: G12C_pERK. An outline of the steps: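 MIA PaCa-2 cells plated overnight, then exposed to compound for 4 h at 37 °C (G12C compounds). Phospho-ERK1/2 measured in lysates by HTRF (665/620 nm) after overnight antibody incubation; IC50 from percent inhibition versus log concentration.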

For a further assay, the target named is KRAS G12C (Homo sapiens, UniProt P01116, G12C). Description: GDP-GTP exchange assay (KRAS_G12C exchange). The conditions noted are these: bodipy-GDP loaded KRAS G12C 2.5 nM, SOS1 150 nM, GppNHp; 2 hours pre-incubation, 2 hours reaction; read-out: G12C_exchange. The assay is classed as biochemical. The essentials:
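Fluorescence exchange of bodipy-GDP for GppNHp, SOS1-driven, read at 485/520 nm; IC50 from four-parameter variable-slope fit. Both mutants used 2.5 nM final labelled protein and a 2 h compound pre-incubation. G12C reaction had 500 uM GppNHp and 150 nM SOS1 for 2 h; G12D ran 4 h.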

A value given as a limit tells only on which side of the number the result lay.

Sequence of KRAS G12C (P01116 1-188 isoform P01116-2 G12C): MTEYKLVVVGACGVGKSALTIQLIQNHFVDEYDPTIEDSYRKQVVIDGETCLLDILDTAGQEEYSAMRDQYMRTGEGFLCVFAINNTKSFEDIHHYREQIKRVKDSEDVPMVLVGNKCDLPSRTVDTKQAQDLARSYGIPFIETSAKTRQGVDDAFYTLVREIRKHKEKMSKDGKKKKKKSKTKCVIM

In the case of `C=CC(=O)N1CC[C@H](n2cnc3c(N4CC(N(C)C)C4)nc4c(F)c(-c5cccc(C)c5C)c(Cl)cc4c32)C[C@H]1CC#N` [Example 16, 2-((2S,4S)-1-acryloyl-4-(8-chloro-4-(3-(dimethylamino)azetidin-1-yl)-7-(2,3-dimethylphenyl)-6-fluoro-1H-imidazo[4,5-c]quinolin-1-yl)piperidin-2-yl)acetonitrile], the IC50 (in assay [1]; at KRAS G12C) was ≤ 100 nM throughout.

With `Cc1cccc(-c2c(C)cc3c(nc(N4CC(N(C)C)C4)c4nnn([C@H]5CCN(C(=O)/C=C/CF)[C@H](CC#N)C5)c43)c2F)c1Cl` [Example 248, 2-((2S,4S)-4-(7-(2-chloro-3-methylphenyl)-4-(3-(dimethylamino)azetidin-1-yl)-6-fluoro-8-methyl-1H-[1,2,3]triazolo[4,5-c]quinolin-1-yl)-1-((E)-4-fluorobut-2-enoyl)piperidin-2-yl)acetonitrile], the IC50 (in assay [1]; on KRAS G12C) was ≤ 100 nM throughout.

Take `C=CC(=O)N1CCC(n2cnc3c(OC[C@@H]4CCCN4C)nc4c(F)c(-c5c(C)ccc6[nH]ncc56)c(Cl)cc4c32)CC1` (single isomer, unassigned) [Example 4a]: the IC50 is 100 to 1000 nM in assay [1] and ≤ 100 nM on KRAS G12C.

Turning to `CC#CC(=O)N1CC[C@H](n2nnc3c(N4CCOCC4=O)nc4c(F)c(-c5cccc(C)c5Cl)c(C)cc4c32)C[C@H]1CC#N` [Example 260, 2-((2S,4S)-1-(but-2-ynoyl)-4-(7-(2-chloro-3-methylphenyl)-6-fluoro-8-methyl-4-(3-oxomorpholino)-1H-[1,2,3]triazolo[4,5-c]quinolin-1-yl)piperidin-2-yl)acetonitrile], the IC50 (in assay [1]; on KRAS G12C) was ≤ 100 nM each time.

Turning to `C=CC(=O)N1CC[C@H](n2nnc3c(N4CC(C)(N(C)C)C4)nc4c(F)c(-c5cccc(Cl)c5C)c(C)cc4c32)C[C@H]1CC#N` [Example 101, 2-((2S,4S)-1-acryloyl-4-(7-(3-chloro-2-methylphenyl)-4-(3-(dimethylamino)-3-methylazetidin-1-yl)-6-fluoro-8-methyl-1H-[1,2,3]triazolo[4,5-c]quinolin-1-yl)piperidin-2-yl)acetonitrile], the IC50 (in assay [1]; on KRAS G12C) was ≤ 100 nM throughout.

With `Cc1cc2c(nc(OC[C@@H]3CCCN3C)c3nnn([C@H]4CCN(C(=O)/C=C/CF)[C@H](CC#N)C4)c32)c(F)c1-c1ccccc1C(F)(F)F` (single isomer, unassigned) [Example 159a], the IC50 (in assay [1]; at KRAS G12C) was ≤ 100 nM each time.

Take `COC/C=C/C(=O)N1CC[C@H](n2nnc3c(N4CC(C)(N(C)C)C4)nc4c(F)c(-c5c(C)c(Cl)cc6[nH]ncc56)c(C)cc4c32)C[C@H]1CC#N` [Example 195a, 2-((2S,4S)-4-(7-(6-chloro-5-methyl-1H-indazol-4-yl)-4-(3-(dimethylamino)-3-methylazetidin-1-yl)-6-fluoro-8-methyl-1H-[1,2,3]triazolo[4,5-c]quinolin-1-yl)-1-((E)-4-methoxybut-2-enoyl)piperidin-2-yl)acetonitrile]: the IC50 (in assay [1]; on KRAS G12C) was ≤ 100 nM throughout.

Consider `C=CC(=O)N1CC[C@H](n2cnc3c(N4CC(N(C)C)C4)nc4c(F)c(-c5ccccc5C)c(Cl)cc4c32)C[C@H]1CC#N` [Example 20, 2-((2S,4S)-1-acryloyl-4-(8-chloro-4-(3-(dimethylamino)azetidin-1-yl)-6-fluoro-7-(o-tolyl)-1H-imidazo[4,5-c]quinolin-1-yl)piperidin-2-yl)acetonitrile], for which the IC50 (in assay [1]; at KRAS G12C) was ≤ 100 nM each time.

Consider `C=CC(=O)N1CC[C@H](n2nnc3c(OC[C@@H]4CCCN4C)nc4c(Cl)c(-c5cccc(Cl)c5Cl)c(Cl)cc4c32)C[C@H]1CC#N` [Example 285, 2-((2S,4S)-1-acryloyl-4-(6,8-dichloro-7-(2,3-dichlorophenyl)-4-(((S)-1-methylpyrrolidin-2-yl)methoxy)-1H-[1,2,3]triazolo[4,5-c]quinolin-1-yl)piperidin-2-yl)acetonitrile], for which the IC50 (in assay [1]; at KRAS G12C) was ≤ 100 nM throughout.

Consider `C=CC(=O)N1CCC(n2nnc3c(N4CC(C)(N(C)C)C4)nc4c(F)c(-c5cccc6cccc(Cl)c56)c(Cl)cc4c32)C[C@H]1CC#N` (single isomer, unassigned) [Example 216a], for which the IC50 (in assay [1]; on KRAS G12C) was ≤ 100 nM throughout.

Regarding `Cc1c(Cl)cc2[nH]ncc2c1-c1c(CCC#N)cc2c(nc(N3CC(N(C)C)C3)c3nnn([C@H]4CCN(C(=O)/C=C/CN(C)C)[C@H](CC#N)C4)c32)c1F` [Example 232, 3-(7-(6-chloro-5-methyl-1H-indazol-4-yl)-1-((2S,4S)-2-(cyanomethyl)-1-((E)-4-(dimethylamino)but-2-enoyl)piperidin-4-yl)-4-(3-(dimethylamino)azetidin-1-yl)-6-fluoro-1H-[1,2,3]triazolo[4,5-c]quinolin-8-yl)propanenitrile], the IC50 (in assay [1]; at KRAS G12C) was ≤ 100 nM each time.

Regarding `C=CC(=O)N1CC[C@H](n2cnc3c(N4CC(N(C)C)C4)nc4c(F)c(-c5cnccc5C)c(Cl)cc4c32)C[C@H]1CC#N` [Example 108, 2-((2S,4S)-1-acryloyl-4-(8-chloro-4-(3-(dimethylamino)azetidin-1-yl)-6-fluoro-7-(4-methylpyridin-3-yl)-1H-imidazo[4,5-c]quinolin-1-yl)piperidin-2-yl)acetonitrile], the IC50 (in assay [1]; on KRAS G12C) was ≤ 100 nM throughout.

As for `C=CC(=O)N1CCC(n2cnc3c(OC[C@@H]4CCCN4C)nc4c(F)c(-c5c(C)ccc6[nH]ncc56)c(Cl)cc4c32)CC1CC#N` (single isomer, unassigned) [Example 37a], the IC50 (in assay [1]; at KRAS G12C) was ≤ 100 nM throughout.

`C=CC(=O)N1CC[C@H](n2cnc3c(N4CC(N(C)C)C4)nc4c(F)c(-c5ccccc5Cl)c(Cl)cc4c32)C[C@H]1CC#N` [Example 57, 2-((2S,4S)-1-acryloyl-4-(8-chloro-7-(2-chlorophenyl)-4-(3-(dimethylamino)-azetidin-1-yl)-6-fluoro-1H-imidazo[4,5-c]quinolin-1-yl)piperidin-2-yl)acetonitrile]: the IC50 (in assay [1]; at KRAS G12C) was ≤ 100 nM each time.

Turning to `C=CC(=O)N1CC[C@H](n2nnc3c(N4CC(C)(N(C)C)C4)nc4c(F)c(-c5cccc(C)c5Cl)c(C)cc4c32)C[C@H]1CC#N` [Example 255, 2-((2S,4S)-1-acryloyl-4-(7-(2-chloro-3-methylphenyl)-4-(3-(dimethylamino)-3-methylazetidin-1-yl)-6-fluoro-8-methyl-1H-[1,2,3]triazolo[4,5-c]quinolin-1-yl)piperidin-2-yl)acetonitrile], the IC50 (in assay [1]; at KRAS G12C) was ≤ 100 nM each time.

Consider `C=CC(=O)N1CC[C@H](n2cnc3c(N4CC(N(C)C)C4)nc4c(F)c(-c5cc(O)cc6ccccc56)c(Cl)cc4c32)C[C@H]1C#N` [Example 22, (2S,4S)-1-acryloyl-4-(8-chloro-4-(3-(dimethylamino)azetidin-1-yl)-6-fluoro-7-(3-hydroxynaphthalen-1-yl)-1H-imidazo[4,5-c]quinolin-1-yl)piperidine-2-carbonitrile], for which the IC50 (in assay [1]; at KRAS G12C) was ≤ 100 nM throughout.

Turning to `C=CC(=O)N1CCC(n2cnc3c(OC[C@@H]4CCCN4C)nc4c(F)c(-c5cccc(C)c5C)c(Cl)cc4c32)CC1CC#N` (mixture of isomers) [Example 43, 2-(1-acryloyl-4-(8-chloro-7-(2,3-dimethylphenyl)-6-fluoro-4-(((S)-1-methyl-pyrrolidin-2-yl)methoxy)-1H-imidazo[4,5-c]quinolin-1-yl)piperidin-2-yl)acetonitrile], the IC50 (in assay [1]; on KRAS G12C) was ≤ 100 nM throughout.

In the case of `C=CC(=O)N1CC[C@H](n2nnc3c(OC[C@@H]4CCCN4C)nc4c(F)c(-c5ccc(F)c(C)c5)c(Cl)cc4c32)C[C@H]1CC#N` [Example 187, 2-((2S,4S)-1-acryloyl-4-(8-chloro-6-fluoro-7-(4-fluoro-3-methylphenyl)-4-(((S)-1-methylpyrrolidin-2-yl)methoxy)-1H-[1,2,3]triazolo[4,5-c]quinolin-1-yl)piperidin-2-yl)acetonitrile], the IC50 (in assay [1]; on KRAS G12C) was ≤ 100 nM in each case.

For the compound `Cc1cc2c(nc(N3CC(C)(N(C)C)C3)c3nnn([C@H]4CCN(C(=O)/C=C/CF)[C@H](CC#N)C4)c32)c(F)c1-c1cccc(Cl)c1C` [Example 104, 2-((2S,4S)-4-(7-(3-chloro-2-methylphenyl)-4-(3-(dimethylamino)-3-methyl-azetidin-1-yl)-6-fluoro-8-methyl-1H-[1,2,3]triazolo[4,5-c]quinolin-1-yl)-1-((E)-4-fluorobut-2-enoyl)piperidin-2-yl)acetonitrile], the IC50 (in assay [1]; on KRAS G12C) was ≤ 100 nM each time.

On to `CC#CC(=O)N1CC[C@H](n2nnc3c(N4CC(C)(N(C)C)C4)nc4c(F)c(-c5cccc(C)c5Cl)c(C)cc4c32)C[C@H]1CC#N` [Example 258, 2-((2S,4S)-1-(but-2-ynoyl)-4-(7-(2-chloro-3-methylphenyl)-4-(3-(dimethylamino)-3-methylazetidin-1-yl)-6-fluoro-8-methyl-1H-[1,2,3]triazolo[4,5-c]quinolin-1-yl)piperidin-2-yl)acetonitrile], for which the IC50 (in assay [1]; on KRAS G12C) was ≤ 100 nM each time.

On to `C=CC(=O)N1CC[C@H](n2cnc3c(N4CC(N(C)C)C4)nc4c(F)c(-c5cccc(F)c5Cl)c(Cl)cc4c32)C[C@H]1CC#N` [Example 58, 2-((2S,4S)-1-acryloyl-4-(8-chloro-7-(2-chloro-3-fluorophenyl)-4-(3-(dimethyl-amino)azetidin-1-yl)-6-fluoro-1H-imidazo[4,5-c]quinolin-1-yl)piperidin-2-yl)acetonitrile], for which the IC50 (in assay [1]; at KRAS G12C) was ≤ 100 nM each time.
